Measurements: patent US8901118B2, “Compounds and methods for kinase modulation, and indications therefor” (Plexxikon Inc., priority 2010, dated 2014)

Experiments:
TrkA kinase = TrkA kinase (Homo sapiens, UniProt P04629); assay: TrkA kinase biochemical activity assay (AlphaScreen); details: 100 μM ATP; read-out: Biochemical Inhibition IC50 TrkA
How it was run: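 IC50 values come from AlphaScreen PY20/streptavidin bead signal versus compound concentration. Kinase reaction: 1 ng/well TrkA, 100 μM ATP, 30 nM biotin-(E4Y)10 substrate, Mn2+-containing Hepes buffer pH 7.5, 5% DMSO, 40 min, room temperature; TrkC assayed by the same approach.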

[1] = Relative solubility by turbidity in aqueous buffers (pH 1.5, 4.5, 6.8, 7.4); type: physicochemical; details: for turbidity threshold (L, M, H) 1.4: pH 1.5 (SGF); for turbidity threshold (L, M, H) 4.5: pH 4.5 (SIF); for turbidity threshold (L, M, H) 6.8: pH 6.8 (SIF); for turbidity threshold (L, M, H) 7.4: pH 7.4 (HEPES)
How it was run: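 Reported value: concentration at which optical density at 490, 535 and 650 nm passes 0.01, taken as the mean of the three wavelengths. Buffers were 0.5M NaCl pH 1.5, 0.05M NaH2PO4 pH 4.5 or 6.8, and 10 mM HEPES/150 mM NaCl pH 7.4, each receiving serial 1:1 DMSO dilutions of a 25 mM stock.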

Sequence of TrkA kinase (P04629 33-796): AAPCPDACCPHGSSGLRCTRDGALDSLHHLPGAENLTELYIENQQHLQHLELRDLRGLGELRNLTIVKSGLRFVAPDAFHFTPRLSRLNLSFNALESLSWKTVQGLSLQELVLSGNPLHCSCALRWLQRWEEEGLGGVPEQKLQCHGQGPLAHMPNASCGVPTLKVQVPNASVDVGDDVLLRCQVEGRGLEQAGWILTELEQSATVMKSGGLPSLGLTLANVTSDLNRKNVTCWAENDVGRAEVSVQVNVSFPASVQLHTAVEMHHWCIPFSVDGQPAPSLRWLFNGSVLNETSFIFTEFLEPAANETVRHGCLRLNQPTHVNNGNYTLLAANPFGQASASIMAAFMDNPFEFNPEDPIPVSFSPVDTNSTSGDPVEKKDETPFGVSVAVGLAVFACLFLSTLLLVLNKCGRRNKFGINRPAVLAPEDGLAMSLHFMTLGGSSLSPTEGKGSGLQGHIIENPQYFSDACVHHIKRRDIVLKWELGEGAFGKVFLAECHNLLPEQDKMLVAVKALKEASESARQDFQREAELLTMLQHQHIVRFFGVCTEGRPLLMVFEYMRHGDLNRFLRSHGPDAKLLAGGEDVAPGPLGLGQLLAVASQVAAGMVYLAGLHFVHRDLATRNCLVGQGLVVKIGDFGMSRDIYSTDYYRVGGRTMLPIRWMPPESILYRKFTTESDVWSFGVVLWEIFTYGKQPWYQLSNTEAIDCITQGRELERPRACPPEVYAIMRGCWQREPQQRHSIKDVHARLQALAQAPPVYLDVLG

Structure (SMILES): CCc1ccc(Nc2ccc(C(=O)c3c[nH]c4ncnc(NC5CCCC5)c34)c(F)n2)cn1 [Compound P-4099, [4-(cyclopentylamino)-7H-pyrrolo[2,3-d]pyrimidin-5-yl]-[6-[(6-ethyl-3-pyridyl)amino]-2-fluoro-3-pyridyl]methanone]
- IC50 (TrkA kinase): < 100 nM
- turbidity threshold (L, M, H) 1.4 [1]: H (high solubility if the threshold concentration is >250 μm)
- turbidity threshold (L, M, H) 4.5 [1]: L (low solubility if the threshold concentration is <31.3 μM)
- turbidity threshold (L, M, H) 6.8 [1]: L (low solubility if the threshold concentration is <31.3 μM)
- turbidity threshold (L, M, H) 7.4 [1]: L (low solubility if the threshold concentration is <31.3 μM)

Structure (SMILES): COCCCNc1ncnc2[nH]cc(C(=O)c3ccc(Nc4ccc(OC)nc4)nc3F)c12 [Compound P-4079, [2-fluoro-6-[(6-methoxy-3-pyridyl)amino]-3-pyridyl]-[4-(3-methoxypropylamino)-7H-pyrrolo[2,3-d]pyrimidin-5-yl]methanone]
- IC50 (TrkA kinase): < 10 nM
- turbidity threshold (L, M, H) 1.4 [1]: H (high solubility if the threshold concentration is >250 μm)
- turbidity threshold (L, M, H) 4.5 [1]: M (moderate solubility if the threshold concentration is 31.3 μM to 250 μM)
- turbidity threshold (L, M, H) 6.8 [1]: M (moderate solubility if the threshold concentration is 31.3 μM to 250 μM)
- turbidity threshold (L, M, H) 7.4 [1]: M (moderate solubility if the threshold concentration is 31.3 μM to 250 μM)

Structure (SMILES): O=C(c1ccc(NC2CCC(F)(F)CC2)nc1)c1c[nH]c2ncnc(NC3CC3)c12 [Compound P-4088, [4-(cyclopropylamino)-7H-pyrrolo[2,3-d]pyrimidin-5-yl]-[6-[(4,4-difluorocyclohexyl)amino]-3-pyridyl]methanone]
- IC50 (TrkA kinase): < 10 nM
- turbidity threshold (L, M, H) 1.4 [1]: H (high solubility if the threshold concentration is >250 μm)
- turbidity threshold (L, M, H) 4.5 [1]: M (moderate solubility if the threshold concentration is 31.3 μM to 250 μM)
- turbidity threshold (L, M, H) 6.8 [1]: M (moderate solubility if the threshold concentration is 31.3 μM to 250 μM)
- turbidity threshold (L, M, H) 7.4 [1]: M (moderate solubility if the threshold concentration is 31.3 μM to 250 μM)

Structure (SMILES): COc1ccc(Nc2ccc(C(=O)c3c[nH]c4ncnc(NC5CCC5)c34)c(F)n2)cn1 [Compound P-4076, [4-(cyclobutylamino)-7H-pyrrolo[2,3-d]pyrimidin-5-yl]-[2-fluoro-6-[(6-methoxy-3-pyridyl)amino]-3-pyridyl]methanone]
- IC50 (TrkA kinase): < 10 nM
- turbidity threshold (L, M, H) 1.4 [1]: M (moderate solubility if the threshold concentration is 31.3 μM to 250 μM)
- turbidity threshold (L, M, H) 4.5 [1]: M (moderate solubility if the threshold concentration is 31.3 μM to 250 μM)
- turbidity threshold (L, M, H) 6.8 [1]: M (moderate solubility if the threshold concentration is 31.3 μM to 250 μM)
- turbidity threshold (L, M, H) 7.4 [1]: L (low solubility if the threshold concentration is <31.3 μM)

Structure (SMILES): CNc1ncnc2[nH]cc(C(=O)c3ccc(NC4CCC(F)(F)CC4)nc3Cl)c12 [Compound P-4058, [2-chloro-6-[(4,4-difluorocyclohexyl)amino]-3-pyridyl]-[4-(methylamino)-7H-pyrrolo[2,3-d]pyrimidin-5-yl]methanone]
- IC50 (TrkA kinase): < 1000 nM
- turbidity threshold (L, M, H) 1.4 [1]: M (moderate solubility if the threshold concentration is 31.3 μM to 250 μM)
- turbidity threshold (L, M, H) 4.5 [1]: L (low solubility if the threshold concentration is <31.3 μM)
- turbidity threshold (L, M, H) 6.8 [1]: L (low solubility if the threshold concentration is <31.3 μM)
- turbidity threshold (L, M, H) 7.4 [1]: L (low solubility if the threshold concentration is <31.3 μM)

Structure (SMILES): CCc1ccc(Nc2ccc(C(=O)c3c[nH]c4ncnc(N)c34)c(F)n2)cn1 [Compound P-4065, (4-amino-7H-pyrrolo[2,3-d]pyrimidin-5-yl)-[6-[(6-ethyl-3-pyridyl)amino]-2-fluoro-3-pyridyl]methanone]
- IC50 (TrkA kinase): < 10 nM
- turbidity threshold (L, M, H) 1.4 [1]: H (high solubility if the threshold concentration is >250 μm)
- turbidity threshold (L, M, H) 4.5 [1]: M (moderate solubility if the threshold concentration is 31.3 μM to 250 μM)
- turbidity threshold (L, M, H) 6.8 [1]: M (moderate solubility if the threshold concentration is 31.3 μM to 250 μM)
- turbidity threshold (L, M, H) 7.4 [1]: M (moderate solubility if the threshold concentration is 31.3 μM to 250 μM)

Structure (SMILES): CNc1ncnc2[nH]cc(C(=O)c3ccc(NC4CCCCC4)nc3F)c12 [Compound P-4102, [6-(cyclohexylamino)-2-fluoro-3-pyridyl]-[4-(methylamino)-7H-pyrrolo[2,3-d]pyrimidin-5-yl]methanone]
- IC50 (TrkA kinase): < 100 nM
- turbidity threshold (L, M, H) 1.4 [1]: H (high solubility if the threshold concentration is >250 μm)
- turbidity threshold (L, M, H) 4.5 [1]: M (moderate solubility if the threshold concentration is 31.3 μM to 250 μM)
- turbidity threshold (L, M, H) 6.8 [1]: M (moderate solubility if the threshold concentration is 31.3 μM to 250 μM)
- turbidity threshold (L, M, H) 7.4 [1]: M (moderate solubility if the threshold concentration is 31.3 μM to 250 μM)

Structure (SMILES): COc1cncc(Nc2ccc(C(=O)c3c[nH]c4ncnc(NC5CCCCC5)c34)c(F)n2)c1 [Compound P-4104, [4-(cyclohexylamino)-7H-pyrrolo[2,3-d]pyrimidin-5-yl]-[2-fluoro-6-[(5-methoxy-3-pyridyl)amino]-3-pyridyl]methanone]
- IC50 (TrkA kinase): < 100 nM
- turbidity threshold (L, M, H) 1.4 [1]: M (moderate solubility if the threshold concentration is 31.3 μM to 250 μM)
- turbidity threshold (L, M, H) 4.5 [1]: L (low solubility if the threshold concentration is <31.3 μM)
- turbidity threshold (L, M, H) 6.8 [1]: L (low solubility if the threshold concentration is <31.3 μM)
- turbidity threshold (L, M, H) 7.4 [1]: L (low solubility if the threshold concentration is <31.3 μM)

Structure (SMILES): CCc1ccc(Nc2ccc(C(=O)c3c[nH]c4ncnc(NC5CCOCC5)c34)c(F)n2)cn1 [Compound P-4116, [6-[(6-ethyl-3-pyridyl)amino]-2-fluoro-3-pyridyl]-[4-(tetrahydropyran-4-ylamino)-7H-pyrrolo[2,3-d]pyrimidin-5-yl]methanone]
- IC50 (TrkA kinase): < 10 nM
- turbidity threshold (L, M, H) 1.4 [1]: H (high solubility if the threshold concentration is >250 μm)
- turbidity threshold (L, M, H) 4.5 [1]: M (moderate solubility if the threshold concentration is 31.3 μM to 250 μM)
- turbidity threshold (L, M, H) 6.8 [1]: M (moderate solubility if the threshold concentration is 31.3 μM to 250 μM)
- turbidity threshold (L, M, H) 7.4 [1]: M (moderate solubility if the threshold concentration is 31.3 μM to 250 μM)

Structure (SMILES): CCN1CCC(Nc2ncnc3[nH]cc(C(=O)c4ccc(Nc5ccc(OC)nc5)nc4F)c23)CC1 [Compound P-4074, [4-[(1-ethyl-4-piperidyl)amino]-7H-pyrrolo[2,3-d]pyrimidin-5-yl]-[2-fluoro-6-[(6-methoxy-3-pyridyl)amino]-3-pyridyl]methanone]
- IC50 (TrkA kinase): < 10 nM
- turbidity threshold (L, M, H) 1.4 [1]: H (high solubility if the threshold concentration is >250 μm)
- turbidity threshold (L, M, H) 4.5 [1]: M (moderate solubility if the threshold concentration is 31.3 μM to 250 μM)
- turbidity threshold (L, M, H) 6.8 [1]: M (moderate solubility if the threshold concentration is 31.3 μM to 250 μM)
- turbidity threshold (L, M, H) 7.4 [1]: M (moderate solubility if the threshold concentration is 31.3 μM to 250 μM)

Structure (SMILES): CCC(C)Nc1ncnc2[nH]cc(C(=O)c3ccc(Nc4ccc(OC)nc4)nc3F)c12 (stereo not shown) [Compound P-4078, [2-fluoro-6-[(6-methoxy-3-pyridyl)amino]-3-pyridyl]-[4-(sec-butylamino)-7H-pyrrolo[2,3-d]pyrimidin-5-yl]methanone]
- IC50 (TrkA kinase): < 10 nM
- turbidity threshold (L, M, H) 1.4 [1]: M (moderate solubility if the threshold concentration is 31.3 μM to 250 μM)
- turbidity threshold (L, M, H) 4.5 [1]: L (low solubility if the threshold concentration is <31.3 μM)
- turbidity threshold (L, M, H) 6.8 [1]: L (low solubility if the threshold concentration is <31.3 μM)
- turbidity threshold (L, M, H) 7.4 [1]: L (low solubility if the threshold concentration is <31.3 μM)

Structure (SMILES): CCCNc1ncnc2[nH]cc(C(=O)c3ccc(Nc4ccc(CC)nc4)nc3F)c12 [Compound P-4122, [6-[(6-ethyl-3-pyridyl)amino]-2-fluoro-3-pyridyl]-[4-(propylamino)-7H-pyrrolo[2,3-d]pyrimidin-5-yl]methanone]
- IC50 (TrkA kinase): < 10 nM
- turbidity threshold (L, M, H) 1.4 [1]: H (high solubility if the threshold concentration is >250 μm)
- turbidity threshold (L, M, H) 4.5 [1]: L (low solubility if the threshold concentration is <31.3 μM)
- turbidity threshold (L, M, H) 6.8 [1]: M (moderate solubility if the threshold concentration is 31.3 μM to 250 μM)
- turbidity threshold (L, M, H) 7.4 [1]: L (low solubility if the threshold concentration is <31.3 μM)

Structure (SMILES): CNc1ncnc2[nH]cc(C(=O)c3ccc(NC4CCCCC4)nc3Cl)c12 [Compound P-4110, [2-chloro-6-(cyclohexylamino)-3-pyridyl]-[4-(methylamino)-7H-pyrrolo[2,3-d]pyrimidin-5-yl]methanone]
- IC50 (TrkA kinase): < 1000 nM
- turbidity threshold (L, M, H) 1.4 [1]: M (moderate solubility if the threshold concentration is 31.3 μM to 250 μM)
- turbidity threshold (L, M, H) 4.5 [1]: L (low solubility if the threshold concentration is <31.3 μM)
- turbidity threshold (L, M, H) 6.8 [1]: L (low solubility if the threshold concentration is <31.3 μM)
- turbidity threshold (L, M, H) 7.4 [1]: L (low solubility if the threshold concentration is <31.3 μM)

Structure (SMILES): CCc1ccc(Nc2ccc(C(=O)c3c[nH]c4ncnc(NCCOC)c34)c(F)n2)cn1 [Compound P-4119, [6-[(6-ethyl-3-pyridyl)amino]-2-fluoro-3-pyridyl]-[4-(2-methoxyethylamino)-7H-pyrrolo[2,3-d]pyrimidin-5-yl]methanone]
- IC50 (TrkA kinase): < 10 nM
- turbidity threshold (L, M, H) 1.4 [1]: H (high solubility if the threshold concentration is >250 μm)
- turbidity threshold (L, M, H) 4.5 [1]: M (moderate solubility if the threshold concentration is 31.3 μM to 250 μM)
- turbidity threshold (L, M, H) 6.8 [1]: M (moderate solubility if the threshold concentration is 31.3 μM to 250 μM)
- turbidity threshold (L, M, H) 7.4 [1]: L (low solubility if the threshold concentration is <31.3 μM)
